{
  "source": "patent US20080103205A1",
  "about": "“Pesticidal compositions and methods of use” (priority 2006, published 2008)",
  "key": {"[1]": {"test_system": "Meloidogyne incognita eggs", "assay": "M. incognita egg hatching", "format": "in vivo", "protocol": "Meloidogyne incognita (plant parasitic nematode) eggs were collected from tomato plant roots and were suspended in water. The solution was either diluted or concentrated to adjust the egg load to about 5000/ml. AT stock solutions prepared in DMSO and 300 ul of test solution was placed in a well, along with 20 ul of aqueous solution containing eggs. The number of eggs in 20 ul solution ranged from 115 to 143 (n=10). Each treatment (2, 5, 10, 20, or 40 ppm) was replicated 5 times. Microplates were sealed with Parafilm™ and incubated at room temperature. Similar tests conducted with 0.2% DMSO alone served as controls. Egg hatching was monitored at 24, 72, 120, and 168 hr after incubation. Both moving and non-moving nematodes were counted to arrive at the number of eggs hatched. Proportion of egg hatch was calculated as the number of juveniles divided by total number of eggs.\nVSCC blockers effect on M. incognita egg hatching is shown in the following tables where % hatched is rounded to the nearest percentage point and where “% C*” is % hatch, normalized to control."}, "[2]": {"test_system": "European corn borer (Ostrinia nubilalis)", "assay": "Diet surface test on European corn borer larvae (2nd instar)", "format": "in vivo", "settings": "for No. dead: 10 larvae", "protocol": "Concentrations of 6.25, 12.5, 25, or 50 ppm AT blocker were prepared in 95% ethyl alcohol (EtOH). 95% EtOH alone served as control. European corn borer (ECB) diet prepared from the powdered diet supplied by French Agricultural Research, Inc. Diet (1-2 ml) was poured into small cups and allowed to cool to room temperature. Test solution (100 ul) was placed onto the diet surface and allowed to evaporate the solvent. Each concentration of chemical had 2 sets of 10 cups each. One late 2nd instar larva was placed in each cup and covered with lid having perforations for aeration. Cups were placed in an incubator for 7 days at 25±1° C. and 70±5% RH. After seven days, the weight of each larva was taken and any mortality was recorded. Then, the surviving larvae were transferred to fresh diet cups holding sufficient diet (5-6 ml) without chemicals and incubated at 25±1° C. and 70±5% RH until pupation. Weights of larvae were taken 14 days after transferring to fresh diet (21 days after start of treatment). Finally, the number of days until pupation was recorded.\nAnion transporters caused larval death and a reduction in weight gain within 7 days exposure. The effect persisted for 2 weeks time on untreated diet, but total time to pupation was relatively unaffected."}},
  "data": [
    {"smiles": "O=C(O)c1c2ccccc2cc2ccccc12", "note": "[9-AC, anthracene-9-carboxylic acid]", "values": [
      {"measurement": "Eggs Hatched %", "setting": "[1]; 2 ppm, 24 hr", "result": 10, "unit": "%"},
      {"measurement": "Eggs Hatched % C* (% hatch, normalized to control)", "setting": "[1]; 2 ppm, 24 hr", "result": 100, "unit": "%"},
      {"measurement": "Eggs Hatched No.", "setting": "[1]; 2 ppm, 24 hr", "result": 65},
      {"measurement": "Eggs Hatched %", "setting": "[1]; 2 ppm, 72 hr", "result": 15, "unit": "%"},
      {"measurement": "Eggs Hatched % C* (% hatch, normalized to control)", "setting": "[1]; 2 ppm, 72 hr", "result": 94, "unit": "%"},
      {"measurement": "Eggs Hatched No.", "setting": "[1]; 2 ppm, 72 hr", "result": 101},
      {"measurement": "Eggs Hatched %", "setting": "[1]; 2 ppm, 120 hr", "result": 20, "unit": "%"},
      {"measurement": "Eggs Hatched % C* (% hatch, normalized to control)", "setting": "[1]; 2 ppm, 120 hr", "result": 91, "unit": "%"},
      {"measurement": "Eggs Hatched No.", "setting": "[1]; 2 ppm, 120 hr", "result": 134},
      {"measurement": "Eggs Hatched %", "setting": "[1]; 2 ppm, 168 hr", "result": 25, "unit": "%"},
      {"measurement": "Eggs Hatched % C* (% hatch, normalized to control)", "setting": "[1]; 2 ppm, 168 hr", "result": 91, "unit": "%"},
      {"measurement": "Eggs Hatched No.", "setting": "[1]; 2 ppm, 168 hr", "result": 167},
      {"measurement": "Eggs Hatched %", "setting": "[1]; 5 ppm, 24 hr", "result": 9, "unit": "%"},
      {"measurement": "Eggs Hatched % C* (% hatch, normalized to control)", "setting": "[1]; 5 ppm, 24 hr", "result": 90, "unit": "%"},
      {"measurement": "Eggs Hatched No.", "setting": "[1]; 5 ppm, 24 hr", "result": 67},
      {"measurement": "Eggs Hatched %", "setting": "[1]; 5 ppm, 72 hr", "result": 14, "unit": "%"},
      {"measurement": "Eggs Hatched % C* (% hatch, normalized to control)", "setting": "[1]; 5 ppm, 72 hr", "result": 87, "unit": "%"},
      {"measurement": "Eggs Hatched No.", "setting": "[1]; 5 ppm, 72 hr", "result": 98},
      {"measurement": "Eggs Hatched %", "setting": "[1]; 5 ppm, 120 hr", "result": 18, "unit": "%"},
      {"measurement": "Eggs Hatched % C* (% hatch, normalized to control)", "setting": "[1]; 5 ppm, 120 hr", "result": 82, "unit": "%"},
      {"measurement": "Eggs Hatched No.", "setting": "[1]; 5 ppm, 120 hr", "result": 129},
      {"measurement": "Eggs Hatched %", "setting": "[1]; 5 ppm, 168 hr", "result": 22, "unit": "%"},
      {"measurement": "Eggs Hatched % C* (% hatch, normalized to control)", "setting": "[1]; 5 ppm, 168 hr", "result": 79, "unit": "%"},
      {"measurement": "Eggs Hatched No.", "setting": "[1]; 5 ppm, 168 hr", "result": 155},
      {"measurement": "Eggs Hatched %", "setting": "[1]; 10 ppm, 24 hr", "result": 9, "unit": "%"},
      {"measurement": "Eggs Hatched % C* (% hatch, normalized to control)", "setting": "[1]; 10 ppm, 24 hr", "result": 90, "unit": "%"},
      {"measurement": "Eggs Hatched No.", "setting": "[1]; 10 ppm, 24 hr", "result": 62},
      {"measurement": "Eggs Hatched %", "setting": "[1]; 10 ppm, 72 hr", "result": 13, "unit": "%"},
      {"measurement": "Eggs Hatched % C* (% hatch, normalized to control)", "setting": "[1]; 10 ppm, 72 hr", "result": 81, "unit": "%"},
      {"measurement": "Eggs Hatched No.", "setting": "[1]; 10 ppm, 72 hr", "result": 90},
      {"measurement": "Eggs Hatched %", "setting": "[1]; 10 ppm, 120 hr", "result": 17, "unit": "%"},
      {"measurement": "Eggs Hatched % C* (% hatch, normalized to control)", "setting": "[1]; 10 ppm, 120 hr", "result": 77, "unit": "%"},
      {"measurement": "Eggs Hatched No.", "setting": "[1]; 10 ppm, 120 hr", "result": 118},
      {"measurement": "Eggs Hatched %", "setting": "[1]; 10 ppm, 168 hr", "result": 20, "unit": "%"},
      {"measurement": "Eggs Hatched % C* (% hatch, normalized to control)", "setting": "[1]; 10 ppm, 168 hr", "result": 71, "unit": "%"},
      {"measurement": "Eggs Hatched No.", "setting": "[1]; 10 ppm, 168 hr", "result": 141},
      {"measurement": "Eggs Hatched %", "setting": "[1]; 20 ppm, 24 hr", "result": 9, "unit": "%"},
      {"measurement": "Eggs Hatched % C* (% hatch, normalized to control)", "setting": "[1]; 20 ppm, 24 hr", "result": 90, "unit": "%"},
      {"measurement": "Eggs Hatched No.", "setting": "[1]; 20 ppm, 24 hr", "result": 59},
      {"measurement": "Eggs Hatched %", "setting": "[1]; 20 ppm, 72 hr", "result": 12, "unit": "%"},
      {"measurement": "Eggs Hatched % C* (% hatch, normalized to control)", "setting": "[1]; 20 ppm, 72 hr", "result": 75, "unit": "%"},
      {"measurement": "Eggs Hatched No.", "setting": "[1]; 20 ppm, 72 hr", "result": 80},
      {"measurement": "Eggs Hatched %", "setting": "[1]; 20 ppm, 120 hr", "result": 15, "unit": "%"},
      {"measurement": "Eggs Hatched % C* (% hatch, normalized to control)", "setting": "[1]; 20 ppm, 120 hr", "result": 68, "unit": "%"},
      {"measurement": "Eggs Hatched No.", "setting": "[1]; 20 ppm, 120 hr", "result": 102},
      {"measurement": "Eggs Hatched %", "setting": "[1]; 20 ppm, 168 hr", "result": 18, "unit": "%"},
      {"measurement": "Eggs Hatched % C* (% hatch, normalized to control)", "setting": "[1]; 20 ppm, 168 hr", "result": 64, "unit": "%"},
      {"measurement": "Eggs Hatched No.", "setting": "[1]; 20 ppm, 168 hr", "result": 122},
      {"measurement": "Eggs Hatched %", "setting": "[1]; 40 ppm, 24 hr", "result": 9, "unit": "%"},
      {"measurement": "Eggs Hatched % C* (% hatch, normalized to control)", "setting": "[1]; 40 ppm, 24 hr", "result": 90, "unit": "%"},
      {"measurement": "Eggs Hatched No.", "setting": "[1]; 40 ppm, 24 hr", "result": 60},
      {"measurement": "Eggs Hatched %", "setting": "[1]; 40 ppm, 72 hr", "result": 12, "unit": "%"},
      {"measurement": "Eggs Hatched % C* (% hatch, normalized to control)", "setting": "[1]; 40 ppm, 72 hr", "result": 75, "unit": "%"},
      {"measurement": "Eggs Hatched No.", "setting": "[1]; 40 ppm, 72 hr", "result": 76},
      {"measurement": "Eggs Hatched %", "setting": "[1]; 40 ppm, 120 hr", "result": 14, "unit": "%"},
      {"measurement": "Eggs Hatched % C* (% hatch, normalized to control)", "setting": "[1]; 40 ppm, 120 hr", "result": 64, "unit": "%"},
      {"measurement": "Eggs Hatched No.", "setting": "[1]; 40 ppm, 120 hr", "result": 94},
      {"measurement": "Eggs Hatched %", "setting": "[1]; 40 ppm, 168 hr", "result": 15, "unit": "%"},
      {"measurement": "Eggs Hatched % C* (% hatch, normalized to control)", "setting": "[1]; 40 ppm, 168 hr", "result": 54, "unit": "%"},
      {"measurement": "Eggs Hatched No.", "setting": "[1]; 40 ppm, 168 hr", "result": 103},
      {"measurement": "No. dead", "setting": "[2]; 6.25 ppm, 7 days after feeding", "result": 0},
      {"measurement": "No. dead", "setting": "[2]; 6.25 ppm, 21 days after feeding", "result": 0},
      {"measurement": "No. dead", "setting": "[2]; 12.5 ppm, 7 days after feeding", "result": 0},
      {"measurement": "No. dead", "setting": "[2]; 12.5 ppm, 21 days after feeding", "result": 0},
      {"measurement": "Days for pupation", "setting": "[2]; 25 ppm", "result": 26.0, "unit": "days"},
      {"measurement": "No. dead", "setting": "[2]; 25 ppm, 7 days after feeding", "result": 0},
      {"measurement": "mortality at 6.25 ppm", "setting": "[2]; Ostrinia nubilalis, 168 h, 6.25 ppm, 7 days after feeding", "result": 0, "unit": "%"},
      {"measurement": "mortality at 12.5 ppm", "setting": "[2]; Ostrinia nubilalis, 168 h, 12.5 ppm, 7 days after feeding", "result": 0, "unit": "%"},
      {"measurement": "mortality at 25 ppm", "setting": "[2]; Ostrinia nubilalis, 168 h, 25 ppm, 7 days after feeding", "result": 0, "unit": "%"},
      {"measurement": "mortality at 6.25 ppm", "setting": "[2]; Ostrinia nubilalis, 504 h, 6.25 ppm, 21 days after feeding", "result": 0, "unit": "%"},
      {"measurement": "mortality at 12.5 ppm", "setting": "[2]; Ostrinia nubilalis, 504 h, 12.5 ppm, 21 days after feeding", "result": 0, "unit": "%"},
      {"measurement": "mortality at 50 ppm", "setting": "[2]; Ostrinia nubilalis, 504 h, 50 ppm, 21 days after feeding", "result": 60, "unit": "%"}
    ]}
  ]
}
